Molecules are shown by their SMILES.

For one assay, the target named is T1, TWIK-2 (Homo sapiens, UniProt Q9Y257).
T1 construct: expressed in transfected cells
Nature of the assay: FLIPR thallium influx assay, HEK-hTWIK-2 cells. The assay is classed as cell-based. The note with it: HEK-hTWIK-2, at 30 μM, compared to TPA controls; read-out: inhibition of constitutive activity. How it is done: HEK-293 cells were transfected with human THIK-1, TREK-1, TWIK-2, or mouse THIK-1 cDNA cloned into pcDNA3.1, using either Fugene HD transfection reagent (Promega) or electroporation (MaxCyte STX instrument). Cells stably expressing the relevant genes were selected based on resistance to 500 μg/ml geneticin (Gibco). For human THIK-1 and TWIK-2 expressing cells, monoclonal lines were isolated by limited dilution cloning; mouse THIK-1 and human TREK-1 expressing cells were maintained as polyclonal pools. The HEK-293 pools and monoclones stably expressing the relevant genes were maintained in DMEM (Life Technologies), supplemented with 10% FCIII (HyClone, Fetal clone III) and 500 μg/ml geneticin. A CHO-Kv2.1 cell line was purchased from Millipore (accession NM_004975) and maintained in F12 (Life Technologies), supplemented with 10% FCSIII (Thermo Scientific) and 500 μg/ml geneticin (Life Technologies). […]
A fluorescence-based thallium influx assay (Molecular Devices potassium assay kit) was used to monitor channel activity. […] Using a fluorescent imaging plate reader (FLIPR) tetra plate reader, 15 μl thallium stimulus solution was added to the cell plate and the fluorescence signal recorded every second for 1 min (excitation: 470–495 nm, emission: 515–575 nm).

In assay [1] the test system is NLRP3-dependent release of IL-1β. Nature of the assay: IL-1β release from LPS-primed neonatal microglia exposed to K+-free buffer. Type of assay: cell-based, mouse. How it is done:
In brief, brains were dissected by removing meninges, cerebellum, and olfactory bulbs before tissue was finely minced with a scalpel then digested with papain solution for 20 min at 37 °C. Tissue was dissociated and the resulting cell suspension was passed through a 40 μm cell strainer (Greiner Bio-One). Cells were centrifuged at 300 g for 5 min then resuspended in culture medium (DMEM, 10% FBS, 1% PenStrep) and plated in T75 collagen-coated flasks (Greiner Bio-One). A full medium change was caried out on day 2 while a half medium was changed on day 5 in the presence of 5 ng/ml of mouse GM-CSF (R&D Systems). Microglia were shaken off between day 9 and 11 and plated onto poly-D-lysine coated 96-well plates (μclear, Greiner Bio-One) at a density of 20,000 cells/well.
IL-1β from culture supernatants was measured with DuoSet ELISA kit (R&D Systems) following the manufacturer instructions.

The target in the next assay is GSK3β (h) (Homo sapiens, UniProt P49841). As to the kind of experiment: Kinase selectivity. The assay is classed as biochemical. The source says:
(§1) Supplement mmc1.docx, table 1 | column: IC50 (μM)

In the next assay the target is Lck (h) (Homo sapiens, UniProt P06239). Nature of the assay: Kinase selectivity. The assay is classed as biochemical.
Sequence of Lck (h) (P06239 whole entry): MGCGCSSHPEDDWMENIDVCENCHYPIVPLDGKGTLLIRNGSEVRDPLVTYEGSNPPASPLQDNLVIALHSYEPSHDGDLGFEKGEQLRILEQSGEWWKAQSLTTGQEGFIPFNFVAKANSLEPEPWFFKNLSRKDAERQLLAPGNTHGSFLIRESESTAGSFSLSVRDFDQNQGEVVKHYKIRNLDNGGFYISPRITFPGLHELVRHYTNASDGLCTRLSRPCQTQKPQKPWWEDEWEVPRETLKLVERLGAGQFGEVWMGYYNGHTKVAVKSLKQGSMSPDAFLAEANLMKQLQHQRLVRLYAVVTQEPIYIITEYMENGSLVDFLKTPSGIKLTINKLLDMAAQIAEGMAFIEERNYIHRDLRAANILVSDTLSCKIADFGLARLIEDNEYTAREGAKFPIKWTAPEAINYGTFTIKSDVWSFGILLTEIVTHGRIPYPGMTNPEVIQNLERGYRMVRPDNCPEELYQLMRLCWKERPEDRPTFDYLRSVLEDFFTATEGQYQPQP
Description: as §1

Another assay deals with PKA (h) (Homo sapiens, UniProt P17612). Nature of the assay: Kinase selectivity. Type of assay: biochemical.
Description: as §1

A further assay addresses ROCK-1 (h) (Homo sapiens, UniProt Q13464). Nature of the assay: Kinase selectivity. Type of assay: biochemical.
Description: as §1

The target of a further assay is ROCK-2 (h) (Homo sapiens, UniProt O75116). Nature of the assay: Kinase selectivity. The assay is classed as biochemical.
Sequence of ROCK-2 (h) (O75116 whole entry): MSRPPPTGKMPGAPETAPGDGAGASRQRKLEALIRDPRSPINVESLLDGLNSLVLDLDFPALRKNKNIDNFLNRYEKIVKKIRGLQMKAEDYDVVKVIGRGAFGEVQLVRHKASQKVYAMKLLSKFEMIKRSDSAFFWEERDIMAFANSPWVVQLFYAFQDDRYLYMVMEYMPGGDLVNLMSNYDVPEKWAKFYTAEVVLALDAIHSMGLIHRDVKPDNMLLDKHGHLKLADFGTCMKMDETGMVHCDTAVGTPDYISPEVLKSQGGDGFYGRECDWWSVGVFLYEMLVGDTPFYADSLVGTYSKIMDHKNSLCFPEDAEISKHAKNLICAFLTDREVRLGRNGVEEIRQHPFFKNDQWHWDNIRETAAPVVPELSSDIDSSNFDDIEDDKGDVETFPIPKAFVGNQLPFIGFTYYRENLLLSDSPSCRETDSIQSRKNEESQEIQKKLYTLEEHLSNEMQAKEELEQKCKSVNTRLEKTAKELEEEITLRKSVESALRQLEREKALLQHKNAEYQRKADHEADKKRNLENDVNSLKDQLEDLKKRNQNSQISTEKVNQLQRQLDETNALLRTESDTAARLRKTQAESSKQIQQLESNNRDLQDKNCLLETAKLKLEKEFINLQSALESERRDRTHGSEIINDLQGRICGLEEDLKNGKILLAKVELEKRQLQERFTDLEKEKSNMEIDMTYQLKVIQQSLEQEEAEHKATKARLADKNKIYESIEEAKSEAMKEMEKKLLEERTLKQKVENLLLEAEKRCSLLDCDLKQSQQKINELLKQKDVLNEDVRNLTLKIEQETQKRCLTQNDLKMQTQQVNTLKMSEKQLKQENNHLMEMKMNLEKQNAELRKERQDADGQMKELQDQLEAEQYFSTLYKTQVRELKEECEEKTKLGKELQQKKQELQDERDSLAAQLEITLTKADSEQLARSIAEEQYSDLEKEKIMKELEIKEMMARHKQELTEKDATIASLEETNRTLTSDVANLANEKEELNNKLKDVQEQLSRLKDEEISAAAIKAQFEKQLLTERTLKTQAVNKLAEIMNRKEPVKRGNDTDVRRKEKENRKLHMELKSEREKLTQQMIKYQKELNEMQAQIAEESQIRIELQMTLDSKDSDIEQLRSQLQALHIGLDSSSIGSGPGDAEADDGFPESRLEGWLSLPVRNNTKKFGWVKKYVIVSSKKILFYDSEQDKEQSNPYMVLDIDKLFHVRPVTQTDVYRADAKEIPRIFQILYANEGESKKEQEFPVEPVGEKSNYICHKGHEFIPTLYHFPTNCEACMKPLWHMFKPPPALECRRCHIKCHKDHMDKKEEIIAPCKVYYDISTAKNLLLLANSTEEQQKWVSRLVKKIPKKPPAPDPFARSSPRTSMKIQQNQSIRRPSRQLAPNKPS
Description: as §1

A further assay deals with Syk (h) (Homo sapiens, UniProt P43405). Nature of the assay: Kinase selectivity. Type of assay: biochemical.
Description: as §1

For a further assay, the target named is p70S6K (h) (Homo sapiens, UniProt P23443). As to the kind of experiment: Kinase selectivity. Type of assay: biochemical.
Sequence of p70S6K (h) (P23443 whole entry): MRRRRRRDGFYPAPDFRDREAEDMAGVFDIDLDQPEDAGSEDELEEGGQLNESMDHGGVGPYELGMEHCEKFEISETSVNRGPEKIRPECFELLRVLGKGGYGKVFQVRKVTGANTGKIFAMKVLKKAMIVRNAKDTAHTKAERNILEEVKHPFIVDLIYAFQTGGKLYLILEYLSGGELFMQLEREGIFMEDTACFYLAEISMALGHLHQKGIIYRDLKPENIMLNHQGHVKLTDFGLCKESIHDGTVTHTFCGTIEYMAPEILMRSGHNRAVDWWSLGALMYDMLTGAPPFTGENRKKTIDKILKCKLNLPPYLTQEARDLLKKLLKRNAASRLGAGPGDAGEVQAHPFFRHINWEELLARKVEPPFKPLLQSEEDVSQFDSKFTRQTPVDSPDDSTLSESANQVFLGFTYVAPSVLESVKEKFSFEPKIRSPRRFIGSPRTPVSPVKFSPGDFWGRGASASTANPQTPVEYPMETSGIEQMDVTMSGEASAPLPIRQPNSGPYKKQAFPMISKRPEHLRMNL
Description: as §1

Sequence of GSK3β (h) (P49841 whole entry): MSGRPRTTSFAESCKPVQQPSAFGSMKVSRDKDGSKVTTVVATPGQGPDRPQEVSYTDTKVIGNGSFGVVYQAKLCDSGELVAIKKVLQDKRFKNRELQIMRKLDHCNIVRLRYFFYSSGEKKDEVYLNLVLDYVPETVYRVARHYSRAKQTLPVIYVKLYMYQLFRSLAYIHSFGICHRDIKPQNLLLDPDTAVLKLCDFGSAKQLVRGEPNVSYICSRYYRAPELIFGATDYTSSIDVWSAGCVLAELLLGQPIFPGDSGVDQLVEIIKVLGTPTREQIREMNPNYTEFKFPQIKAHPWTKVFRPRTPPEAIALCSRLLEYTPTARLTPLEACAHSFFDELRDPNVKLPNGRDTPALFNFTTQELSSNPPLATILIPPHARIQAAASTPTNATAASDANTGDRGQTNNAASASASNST
Sequence of ROCK-1 (h) (Q13464 whole entry): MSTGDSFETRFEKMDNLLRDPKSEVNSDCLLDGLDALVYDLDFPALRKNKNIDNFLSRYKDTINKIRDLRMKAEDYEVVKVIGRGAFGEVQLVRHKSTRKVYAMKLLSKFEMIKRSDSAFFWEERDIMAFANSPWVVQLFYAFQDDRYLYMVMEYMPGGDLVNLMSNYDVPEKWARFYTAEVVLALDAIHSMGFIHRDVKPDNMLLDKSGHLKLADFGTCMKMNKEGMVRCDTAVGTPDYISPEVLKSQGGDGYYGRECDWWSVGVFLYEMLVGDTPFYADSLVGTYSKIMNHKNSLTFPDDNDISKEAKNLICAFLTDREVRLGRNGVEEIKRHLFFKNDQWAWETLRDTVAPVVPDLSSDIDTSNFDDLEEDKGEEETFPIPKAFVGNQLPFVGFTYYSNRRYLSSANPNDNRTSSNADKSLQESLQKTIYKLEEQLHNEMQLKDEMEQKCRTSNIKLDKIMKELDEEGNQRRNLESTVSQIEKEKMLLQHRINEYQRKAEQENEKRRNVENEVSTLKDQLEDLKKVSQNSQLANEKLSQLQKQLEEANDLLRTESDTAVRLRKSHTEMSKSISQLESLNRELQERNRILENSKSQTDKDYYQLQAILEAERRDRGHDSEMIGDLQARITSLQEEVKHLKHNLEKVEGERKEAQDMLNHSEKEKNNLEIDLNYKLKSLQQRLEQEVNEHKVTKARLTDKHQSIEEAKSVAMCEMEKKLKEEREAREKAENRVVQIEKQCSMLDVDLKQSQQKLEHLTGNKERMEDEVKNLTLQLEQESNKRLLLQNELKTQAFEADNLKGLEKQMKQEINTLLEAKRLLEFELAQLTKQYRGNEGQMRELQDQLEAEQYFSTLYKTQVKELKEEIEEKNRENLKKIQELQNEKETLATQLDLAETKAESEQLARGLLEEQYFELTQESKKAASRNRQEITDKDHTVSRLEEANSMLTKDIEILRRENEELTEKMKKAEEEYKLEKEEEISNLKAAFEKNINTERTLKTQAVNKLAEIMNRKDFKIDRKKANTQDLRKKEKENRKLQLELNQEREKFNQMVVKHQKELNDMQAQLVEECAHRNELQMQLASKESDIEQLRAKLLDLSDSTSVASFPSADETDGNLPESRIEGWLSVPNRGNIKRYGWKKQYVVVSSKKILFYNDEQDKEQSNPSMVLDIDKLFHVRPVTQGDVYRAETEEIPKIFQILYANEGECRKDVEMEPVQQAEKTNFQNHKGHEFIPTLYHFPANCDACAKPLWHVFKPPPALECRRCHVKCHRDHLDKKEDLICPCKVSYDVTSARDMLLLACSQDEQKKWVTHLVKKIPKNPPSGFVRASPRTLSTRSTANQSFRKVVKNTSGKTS
T1 sequence (Q9Y257 whole entry): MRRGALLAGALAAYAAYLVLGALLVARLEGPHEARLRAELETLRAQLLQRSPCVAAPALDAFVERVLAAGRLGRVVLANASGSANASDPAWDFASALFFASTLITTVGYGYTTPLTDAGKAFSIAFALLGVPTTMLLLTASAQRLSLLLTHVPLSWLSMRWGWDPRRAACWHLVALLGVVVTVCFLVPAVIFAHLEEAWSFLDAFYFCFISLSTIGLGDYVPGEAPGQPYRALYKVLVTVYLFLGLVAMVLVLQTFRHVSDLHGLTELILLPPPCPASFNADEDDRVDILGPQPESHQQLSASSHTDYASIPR

For the molecule `Nc1nonc1-c1nc2ccccc2n1Cc1ccncc1` [C101248], on TWIK-2, the inhibition at 30 µM is 7%. Besides, the “reduction of IL-1β release” value in assay [1] (10 μM, wild type neonatal microglia, K+-free buffer) is given as ~55%. Besides, the IC50 in [1] (Mus musculus, wild-type neonatal microglia, LPS-primed, K+-free buffer, read-out: IC50, inhibition of IL-1β release) was 0.106 µM; on GSK3β (h), > 10 µM; on Lck (h), > 10 µM; against PKA (h), > 10 µM; against ROCK-1 (h), > 10 µM; at ROCK-2 (h), > 10 µM. Besides, the half-inhibitory concentration (IC50) on Syk (h) and against p70S6K (h) was > 10 µM in each case. For the same molecule, in assay [1] (THIK-1 KO neonatal microglia, 10 μM), the “effect on K+-free buffer-induced release of IL-1β in THIK-1 KO microglia” value is “no impact”.

Source of the values: publication PMC9841576, “Characterisation of C101248: A novel selective THIK-1 channel inhibitor for the modulation of microglial NLRP3-inflammasome” (Neuropharmacology, 2023).
